Test results as given in article PMC12024912, “Druggability Studies of Benzene Sulfonamide Substituted Diarylamide (E3) as a Novel Diuretic” (Biomedicines, 2025).
Like-named read-outs stand apart in the source and are kept apart here.

Assays:
UT-B = target: T1, UT-B (Rattus norvegicus, UniProt P97689); assay: Erythrocyte lysis assay for UT-B inhibition, rat erythrocytes; type: cell-based
T1 construct: endogenous in cells; host or cells: erythrocytes from male SD rats
T1 sequence (P97689 1-384): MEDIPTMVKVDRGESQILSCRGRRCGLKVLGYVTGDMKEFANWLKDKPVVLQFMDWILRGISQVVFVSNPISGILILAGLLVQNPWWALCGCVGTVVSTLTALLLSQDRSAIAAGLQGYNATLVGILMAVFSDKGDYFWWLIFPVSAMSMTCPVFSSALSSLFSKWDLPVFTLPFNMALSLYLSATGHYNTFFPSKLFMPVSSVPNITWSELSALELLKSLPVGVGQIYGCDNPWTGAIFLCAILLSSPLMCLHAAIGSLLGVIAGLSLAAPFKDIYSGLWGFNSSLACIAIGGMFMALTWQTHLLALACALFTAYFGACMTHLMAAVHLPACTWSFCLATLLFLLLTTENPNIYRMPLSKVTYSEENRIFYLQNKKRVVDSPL
Experimental: The erythrocyte lysis assay was modified from a method described previously. Erythrocytes obtained from veins were diluted to a hematocrit value of 2% in hyperosmolar PBS containing 1.25 mol/L urea and 5 mmol/L glucose and incubated at r.t. for 2 h. Then, 99 μL erythrocyte suspension from a reservoir was added to each well of a 96-well round-bottom microplate, then 1 μL of the testing compound (500, 125, 31.25, 7.81, 1.95, 0.488, 0.122, 0.031, 0.0076 μmol/L dissolved in DMSO) was added to erythrocyte suspension and shook it up with microoscillator for 1 min. Following 5 min incubation, 20 μL erythrocyte suspension was transferred into 96-well black microplates preloaded with 180 μL isotonic PBS (10 mM, urea-free). Erythrocyte lysis was monitored at 710 nm optical density (OD710) for 6 min, with lysis rates calculated using control values from the same plate as Equation (1):Lysis (%) = 100 × (Aneg − Atest)/(Aneg − Apos)(1) where Atest is the absorbance value from the test well, Aneg is from a negative no-lysis control well, and Apos is from a positive full-lysis control.

rat UT-B = target: T2, rat UT-B (Rattus norvegicus, UniProt P97689); assay: Transwell assay of UT-B inhibition in UT-B-MDCK cells; type: cell-based; settings: read-out: IC50 against UT-B-mediated urea permeability
T2 construct: expressed in transfected cells
T2 sequence (P97689 1-384): T1 sequence (P97689 1-384)
Experimental: MDCK cells stably expressing rat UT-A1 or UT-B were cultured in DMEM supplemented with 10% FBS, and the mRNA levels of UT-A1 and UT-B were measured in our previous research. Urea flux was assessed according to previously established methods. MDCK cells (2 × 10^5 cells/cm^2) were grown on 12 mm collagen-coated Costar Transwell inserts (0.4 μm pore size, Corning) for 4 d at 37 °C in the presence of 5% CO2. Once the cells on the apical side formed a tight monolayer (transepithelial resistance 1 kΩ/cm^2), PBS (pH = 7.4, containing 10 μmol/L forskolin) with E3 or DMSO was added to the top (0.25 mL) and bottom (1 mL) compartments, and the cultures were incubated in the absence of urea for 30 min at 37 °C. As UT-B is located in the plasma membrane while UT-A1 resides in the cytoplasm, forskolin was used to stimulate the translocation of UT-A1 from the cytoplasm to the membrane for urea transport. Subsequently, the solution in the bottom compartment was replaced with PBS (pH 7.4, containing 10 μmol/L forskolin and E3 or DMSO) supplemented with 15 mmol/L urea. Apical fluid samples (5 μL) were collected at 0, 1, 3, 5, 10, 15, 20, 30, 40, 50, and 60 min. The samples were subjected to an assay for urea (Urea Colorimetric Assay Kit (Diacetyl Oxime Method), Elabscience, Wuhan, China) according to the kit procedure. Then, the inhibition rate was calculated as described previously.

Blood stability, mouse = type: in vitro ADME; settings: plasma, n=3
Experimental: (§1) Plasma from mice, rats, rabbits, and humans was obtained from blood after centrifugation at 3000 r/min for 10 min. Simulated gastric fluid (SGF, pH = 1, containing pepsin) and simulated intestinal fluid (SIF, pH = 6.8, containing trypsin) were configured previously in the experiments. SD rats and mice were collected, and after removing the mucus layer from the small intestine and colon, 20 times the volume of liquid bacterial culture medium was added. An intestinal microbiota suspension was obtained after anaerobic cultivation on a shaking table at 37 °C for 12 h. In the aforementioned systems, E3 was added at a final concentration of 1 μmol/L at 37 °C for different incubation times (0, 10, 20, 30, 60, 120, and 240 min). In liver metabolic stability assays, E3 was incubated with liver microsomes or liver homogenate from mice or rats for 60 min at 37 °C. The stop solution, 5 ng/mL tolbutamide (internal standard, IS) in acetonitrile, was added to stop the metabolic process. Post-centrifugation (18,000× g, 10 min, 4 °C), supernatants were subjected to liquid chromatography–tandem mass spectrometry (LC–MS/MS). Analyte-to-IS peak area ratios quantified residual percentages via Equation (2):Remaining% = (E3peak area/ISpeak area at different time)/(E3peak area/ISpeak area at 0 min) × 100%.(2)

Blood stability, rat = type: in vitro ADME; settings: plasma, n=3
Experimental: as §1

[1] = Liver microsome metabolic stability, mouse; type: in vitro ADME; settings: 60 min incubation, 37 °C
Experimental: as §1

hERG K+ channel = target: T3, hERG K+ channel (Homo sapiens, UniProt Q12809); assay: hERG K+ channel tail current, QPatch, CHO-hERG cells; type: cell-based
T3 construct: expressed in transfected cells; host or cells: CHO-hERG cells
Experimental: CHO-hERG cells were maintained in F12 medium (Gibco, Thermo Fisher Scientific, Waltham, MA, USA) containing 10% FBS and 0.5 mg/mL Geneticin (Invitrogen, Thermo Fisher Scientific, Waltham, MA, USA) under standard culture conditions (37 °C, 5% CO2). Cells were seeded 2 days prior to reaching 70% confluency, then washed with PBS and detached using 5 mL Detachin (Genlantis, San Diego, CA, USA) at 37 °C for 2~3 min. Cell suspensions (2 × 10^6 cells/mL in F12) were prepared and equilibrated for 20 min in the QStir station of the QPatch-16 system (Sophion Bioscience, Copenhagen, Denmark) before electrophysiological recordings.
hERG channel tail currents were assessed using the QPatch automated platform. Recording solutions contained (mM): Internal: KCl 120, CaCl2 5.374, MgCl2 1.75, KOH 31.25, EGTA 10, HEPES 10, Na2ATP 4 (pH 7.2); External: NaCl 145, KCl 4, MgCl2 1, CaCl2 2, HEPES 10, glucose 10 (pH 7.4)
Cells were voltage-clamped at −80 mV with series resistance monitored during −100 mV hyperpolarization. The stimulation protocol included: (1) 200 ms baseline at −50 mV; (2) 2s depolarization to +20 mV; and (3) tail current recording at −50 mV. Signals were acquired at 2 kHz through the integrated Bessel filter. Concentration-response relationships were established by sequential compound applications bracketed with saline controls for normalization.

T3 sequence (Q12809 whole entry): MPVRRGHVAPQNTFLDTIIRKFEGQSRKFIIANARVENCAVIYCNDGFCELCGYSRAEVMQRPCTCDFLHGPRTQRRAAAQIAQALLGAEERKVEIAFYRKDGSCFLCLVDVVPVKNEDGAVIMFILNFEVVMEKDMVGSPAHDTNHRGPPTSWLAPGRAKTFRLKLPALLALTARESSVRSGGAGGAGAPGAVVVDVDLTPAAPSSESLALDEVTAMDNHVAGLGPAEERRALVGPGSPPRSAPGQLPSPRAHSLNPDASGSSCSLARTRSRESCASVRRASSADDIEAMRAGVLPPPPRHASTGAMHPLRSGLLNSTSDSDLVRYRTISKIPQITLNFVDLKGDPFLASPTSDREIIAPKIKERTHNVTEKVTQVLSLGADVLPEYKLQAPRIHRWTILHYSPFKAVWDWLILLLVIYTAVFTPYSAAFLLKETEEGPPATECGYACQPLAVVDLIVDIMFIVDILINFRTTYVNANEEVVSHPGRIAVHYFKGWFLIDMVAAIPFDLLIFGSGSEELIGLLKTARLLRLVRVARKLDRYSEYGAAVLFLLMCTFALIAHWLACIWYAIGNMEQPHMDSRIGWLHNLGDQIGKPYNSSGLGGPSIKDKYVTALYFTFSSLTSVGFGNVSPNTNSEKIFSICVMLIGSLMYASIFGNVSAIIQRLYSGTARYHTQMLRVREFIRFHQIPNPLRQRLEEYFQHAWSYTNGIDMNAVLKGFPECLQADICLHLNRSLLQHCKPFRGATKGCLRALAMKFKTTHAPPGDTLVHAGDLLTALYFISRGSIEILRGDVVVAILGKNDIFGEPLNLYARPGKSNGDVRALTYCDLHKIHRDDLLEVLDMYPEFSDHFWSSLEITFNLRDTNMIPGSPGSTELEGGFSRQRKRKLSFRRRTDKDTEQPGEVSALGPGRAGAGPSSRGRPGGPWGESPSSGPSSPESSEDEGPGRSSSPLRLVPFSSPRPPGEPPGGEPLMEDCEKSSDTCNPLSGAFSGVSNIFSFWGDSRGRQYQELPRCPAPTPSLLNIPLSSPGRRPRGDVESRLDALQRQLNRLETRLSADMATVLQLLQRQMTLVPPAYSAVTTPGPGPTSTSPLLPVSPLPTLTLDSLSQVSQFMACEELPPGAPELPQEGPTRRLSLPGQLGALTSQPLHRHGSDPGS

CC(=O)c1ccc(C(=O)Nc2cccc(NS(=O)(=O)c3ccccc3)c2)o1 [Compound E3, 5-acetyl-N-(3-(phenylsulfonamido)phenyl)furan-2-carboxamide]
maximum inhibition rate, rat cells (UT-B; erythrocyte lysis assay): approximately 100% | IC50 (UT-B; erythrocyte lysis model, rat, n = 3, means, read-out: IC50 (μM) Rat): 0.01 µM | IC50 (UT-B; red blood cell lysis assay, read-out: IC50 for UT-B-promoted urea transport, rats): 0.0076 µM | IC50 (rat UT-B): 0.058 µM | remaining at 1 μmol/L (Blood stability, mouse): 45.3% | remaining at 1 μmol/L (Blood stability, rat): 46.8% | remaining amount, mouse liver microsomes [1]: 36.8% | IC50 (hERG K+ channel): > 33.3 µM
